Experimental findings from US20090055940A1, “ZEBRAFISH MODEL OF MLL LEUKEMOGENESIS” (priority 2006, published 2009) are described below.

Data set [1] has as its system zebrafish mll mRNA (exon 2-intron 2 splice junction). Briefly: RT-PCR of zebrafish mll transcript splicing after morpholino knockdown. Type of data set: in vivo. Conditions: embryos injected at 1-2 cell stage with 16 ng, products sequenced. The protocol: (§1) A detailed characterization of the role of wild-type mll in the development of the zebrafish hematopoietic system was also performed. The morpholino knockdown strategy (Paffett-Lugassy et al. (2005) Methods Mol. Med., 105:171-98) was employed to characterize the phenotype of loss of mll and determine whether zebrafish mll depletion is associated with a phenotype resembling that in mammals. […] The construct was obtained from Gene Tools, LLC (Philomath, Oreg.). Target mRNA sequence was 5′-[…]gtaaacaaattctctaaattattgt-3′ (SEQ ID NO: 38; Exon 2 is capitalized; intron 2 is lower case; underline indicates 25-base sequence encompassed by morpholino). The MO E2I2 sequence was 5′-tagagaatttgtttacCTATTGACG-3′ (SEQ ID NO: 39). The normal transcript splicing is shown by the grey lines in FIG. 11A. The aberrant splicing of exon 1 to exon 3 is shown by the black lines in FIG. 11A and the thick black line in FIG. 11A indicates a second form of aberrant splicing due to failure to splice out intron 2. A 2 mM (16 ng/nl) MO E2I2 stock solution was prepared in dH2O and diluted in Danieau Solution to the desired concentration.
Wild type male and female adults were bred, fertilized eggs collected, and 100 embryos at the 1-2 cell stage were injected with 16 ng of MO E2I2. […]

The subject of the next data set is zebrafish embryos. Description: Phenotype of zebrafish embryos after mll depletion (DIC microscopy of live embryos). Type of data set: in vivo. The protocol:
as §1
Wild type male and female adults were bred, fertilized eggs collected, and 100 embryos at the 1-2 cell stage were injected with 16 ng of MO E2I2. Control uninjected embryos (n=100) and injected embryos were raised in petri dishes in E3 embryo medium (Paffett-Lugassy et al. (2005) Methods Mol. Med., 105:171-98) to the desired age. PTU (1-phenyl-2-thiourea) was applied at 24 hpf as described (Herbomel et al. (2005) Methods Mol. Med., 105:199-214) to inhibit melanin synthesis. To harvest embryos for RNA, 20 embryos were collected in 1.5 ml eppendorf tubes, E3/PTU was removed, embryos were anesthetized with tricaine, tricaine was removed, 100% methanol was added and tubes were placed at −20° C. RNA was prepared using RNeasy (Qiagen) and RT-PCR was performed using SuperScript III One Step kit (Invitrogen) with sense and antisense primers 5′-[…]-3′ (SEQ ID NO: 40) and 5′-[…]-3′ (SEQ ID NO: 41). Knockdown of properly spliced transcript and production of two aberrant transcripts shown in the schematics of FIG. 11B was confirmed by sequencing the products.
DIC images of representative live embryos were taken using Leica DMRBE microscope with 4× objective and captured using Image Pro. […] By 48 hpf, erythroid cells are seen in heart/ventral anterior yolk sac of control (filled black arrow in FIG. 11C). In contrast, erythroid cells are barely visible in morphant (unfilled black arrow), and morphant has smaller eyes (arrow) and persistent hindbrain abnormality (arrow) (FIG. 11C).

Setting [2] is: 48 hpf, 16 ng injected, vs un-injected control embryos.

Entries after “also recorded” stand apart in the source; their conditions may differ.

As for “5′-tagagaatttgtttacCTATTGACG-3′ (antisense TAGAGAATTTGTTTACCTATTGACG; all phosphorodiamidate morpholino (PMO)) [MO E2I2]”, the “effect on mll transcript splicing” value in data set [1] was “effectively disrupted; also recorded: inhibited proper splicing and resulted in production of two different aberrantly spliced mll mRNAs and reduction of the normal transcript”. In addition, the “morphant phenotype by 28 hpf” value in the data set on zebrafish embryos (28 hpf, 16 ng injected, vs un-injected control embryos) is “aberrant protrusion at the tip of the head and enlarged hindbrain ventricle”. In addition, in the data set with zebrafish embryos (setting [2]), the “erythroid cells in the heart and at the ventral yolk sac by 48 hpf” value is “substantially less erythroid cells”; the “other morphant features (eyes, hindbrain)” value is “smaller eyes and a prominent hindbrain abnormality”. Also, the “viability of morphant embryos” value in the data set on zebrafish embryos (embryos injected with 16 ng at 1-2 cell stage) is “viable”. In the data set with zebrafish embryos (of the 100 embryos injected with 16 ng at 1-2 cell stage), the “embryos exhibiting a phenotype that included hematopoietic and neuronal defects, small size, and delayed development” value is “Approximately 60%”.
